Legend:
cerebellar granule cells [1] = assay: Clomeleon imaging of [Cl−]i in cerebellar granule cells (tonic GABA release); assay type: cell-based, mouse; details: bath application of 10 μM
Protocol: B6 wildtype, GFAP-GFP and hGFAP-CreERT2 trangenic mice (SPF room, Center for Neural Science, KIST, Seoul, Korea) were anaesthetized by intraperitoneal injection of 2% avertin (20 μl/g, sigma) and placed in a stereotaxic frame (David Kopf instrument). pSicoR-b1shRNA-mCherry or scrambled virus (Macrogen) was stereo-injected into cerebellar cortex at a rate of 0.2 μl/min (total 2 μl) using syringe pump (Harvard apparatus) and 25 μl syringe (Hamilton company). The coordination of injection site was 1.7 mm from the lambda and the depth was 1.5-1.7 mm from the skull. […]
Clomeleon, based on fluorescence resonance energy transfer (FRET), is a genetically-encoded fluorescent indicator for Cl^− in which chloride-sensitive yellow fluroscent protein fused with chloride-insensitive cyan fluorescent protein via a flexible peptide linker (Kuner and Augustine, 2000). […]
For imaging, two ROIs (Regions of Interest) covering the granule cell layer and the molecular layer were drawn. […] Fluorescence excitation was produced by two consecutive 200 to 500 ms long light pulses at 0.5 Hz and fluorescence emission was alternately collected at each wavelength with a back-illuminated, cooled CCD camera with the on-chip multiplication gain control (Cascade 512B, Photometrics). […]

hBest1 = target: T1, hBest1 (Homo sapiens, UniProt O76090); details: cited from earlier work
T1 sequence (O76090 1-585): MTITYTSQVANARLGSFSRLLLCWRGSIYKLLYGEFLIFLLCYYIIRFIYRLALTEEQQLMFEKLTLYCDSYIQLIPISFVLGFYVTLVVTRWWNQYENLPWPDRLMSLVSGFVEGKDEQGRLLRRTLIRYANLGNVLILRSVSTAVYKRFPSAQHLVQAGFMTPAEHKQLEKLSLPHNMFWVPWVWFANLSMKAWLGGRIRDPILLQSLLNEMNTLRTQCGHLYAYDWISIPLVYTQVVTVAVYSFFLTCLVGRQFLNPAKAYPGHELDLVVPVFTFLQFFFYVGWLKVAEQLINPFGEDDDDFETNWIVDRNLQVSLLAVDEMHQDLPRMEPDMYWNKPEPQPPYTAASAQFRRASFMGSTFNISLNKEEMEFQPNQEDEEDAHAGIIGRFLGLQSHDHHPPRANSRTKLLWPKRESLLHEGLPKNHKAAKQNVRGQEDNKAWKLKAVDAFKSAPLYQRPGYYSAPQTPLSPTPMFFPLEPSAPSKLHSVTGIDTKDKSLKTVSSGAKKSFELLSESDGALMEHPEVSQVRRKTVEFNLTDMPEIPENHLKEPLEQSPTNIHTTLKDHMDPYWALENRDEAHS

GABAA receptor = assay: GABA-induced whole cell current in cerebellar granule cells; assay type: cell-based; details: NPPB application 2 and 5 min; wild B6 mouse granule cells
Protocol: For puffing experiment, glass electrode (5-6 MΩ) filled with […] was positioned near to the patched granular cell and puffed briefly for 500 ms by Picospritzer III (Parker instrumentation) connected with MiniDigi (Molecular Device).
The magnitudes of GABA induced current with the NPPB application (2 and 5 min) are also shown.

cerebellar granule cells [2] = assay: Whole-cell patch clamp of tonic GABA current in cerebellar granule cells; assay type: cell-based, mouse
Protocol: Brain slices were prepared as described in Rossi et al., 2003. For slice recording, either approximately P28 days old or more than 8 weeks old mice were used. Animals were deeply anesthetized with halothane. After decapitation, the brain was quickly excised from the skull and submerged in ice-cold cutting solution (in mM): 250 Sucrose, 26 NaHCO3, 10 D(+)-Glucose, 4 MgCl2, 3 myo-inositol, 2.5 KCl, 2 Sodium pyruvate, 1.25 NaH2PO4, 0.5 Ascorbic acid 0.1 CaCl2, 1 Kynurenic acid, pH 7.4. All solutions were gas-treated with 95% O2-5% CO2. After trimming both sides of vermis, several parasagittal slices with […] thicknesses containing cerebellar lobes were cut using a microtome (Leica VT 1000) and transferred to extracellular ACSF solution (in mM); 126 NaCl, 24 NaHCO3, 1 NaH2PO4, 2.5 KCl, 2.5 CaCl2, 2 MgCl2, 10 D(+)-Glucose, pH 7.4. Slices were incubated for one hour at least at room temperature.
For recording, slices were transferred to an electrophysiological recording chamber (RC-26G, Warner Instruments) which is continuously superfused with ASCF (artificial cerebrospinal fluid, sigma) solution (flow rate; 2 ml/min) and controlled by flower controller (Synaptosoft) and a vacuum pump (Charles Austen, model Capex 8C). Slice chamber was mounted on the stage of an upright microscope (Olympus, Japan) and viewed with an ×60 water immersion objective with differential interference contrast and infrared optics. Cellular morphologies were visually identified by Imaging Workbench 6.0 (INDEC Systems, Inc), camera controller (Hamamatsu, C4742-95), and light microscope controller (Olympus, TH4-200). Fluorescence images were viewed with mercury lamp (Olympus, U-RFL-T). Whole cell voltage-clamp recording was made from granular cell somata or Bergmann glial cells mostly located in 2-5 cerebellar lobules
Pipette resistance for granule cells was typically 10-12 MΩ and pipette was filled with an internal solution containing (in mM) 135 CsCl, 4 NaCl, 0.5 CaCl2, 10 HEPES, 5 EGTA, 2 Mg-ATP, 0.5 Na2-GTP, 10 QX-314, pH adjusted to 7.2 with CsOH (278-285 mOsmol) was used (Rossi, et al., 2003).
B6 wildtype, GFAP-GFP and hGFAP-CreERT2 trangenic mice (SPF room, Center for Neural Science, KIST, Seoul, Korea) were anaesthetized by intraperitoneal injection of 2% avertin (20 μl/g, sigma) and placed in a stereotaxic frame (David Kopf instrument). pSicoR-b1shRNA-mCherry or scrambled virus (Macrogen) was stereo-injected into cerebellar cortex at a rate of 0.2 μl/min (total 2 μl) using syringe pump (Harvard apparatus) and 25 μl syringe (Hamilton company). The coordination of injection site was 1.7 mm from the lambda and the depth was 1.5-1.7 mm from the skull.
The glia-specific CreERT activation was initiated by intraperitoneal injection of tamoxifen for 5 days prior to lentivirus injection (FIG. 4a,b). […] Tamoxifen or sunflower oil were injected intraperitoncally once a day for 5 days before lentivirus injection.

O=C(O)c1cc([N+](=O)[O-])ccc1NCCCc1ccccc1 [NPPB, 5-nitro-2(3-phenylpropylamino)-benzoic acid]
[Cl−]i in granular cell bodies and parallel fibers (cerebellar granule cells [1]): decreased | block of hBest1 Cl− channel (hBest1): readily blocked | GABA-induced whole cell current (GABAA receptor): did not have any effect | NPPB sensitive and Best1-mediated tonic GABA release as share of total GABAzine-sensitive current (cerebellar granule cells [2]): about 70% | Tonic GABA current (cerebellar granule cells [2]; bath application of 50 μM NPPB, 8 wks B6 mice): reduced | NPPB-sensitive component of tonic GABA current (cerebellar granule cells [2]; naive mice, 50 μM NPPB): 18.95±2.47 pA

From patent US9095535B2, “GABA release-regulating agent in cerebellum” (KOREA INSTITUTE OF SCIENCE AND TECHNOLOGY, priority 2009, dated 2015)
